“Also recorded” adds a separate entry of the source.
Tests used:
[1] = Identification of DHM metabolites in serum and brain by UPLC-QqQ/MS; type: in vivo, mice; conditions: for Detection of metabolite in serum: mice, following DHM 50 mg/kg IP and PO; for Detection of metabolite in brain samples: male and female mice 15 min post DHM IP 50 mg/kg
Description: Eight-week-old male and female C57BL/6J mice (Jackson’s Laboratories, Bar Harbor, ME, USA) were housed 4 mice to a cage (separated by sex) and maintained on 12-h light, 12-h dark cycles (lights on at 0700 h) in the animal facility at the Department of Animal Sciences, Rutgers University. Following 1-week acclimation, animals were given ad libitum access to water and a polyphenol-free diet (PFD; 3.82 kcal/g, 10% fat, 20% protein, 70% carbohydrate; D12450H; Research Diets, Inc., New Brunswick, NJ, USA) for at least 10 days. For PK studies, after an overnight fast, mice were administered 50 mg/kg DHM (dissolved in 0.9% saline with 10% DMSO) by either IP injection or oral gavage. Oral gavage was performed using single-use, sterile plastic feeding tubes for mice (20 ga × 30 mm; cat# FTP-20-30, Instech Laboratories, (Plymouth Meeting, PA, USA). Mice were deeply anesthetized with 5% isoflurane mixed with oxygen, and blood was collected by cardiac puncture. Following cardiac puncture, animals were exsanguinated and transcardial perfusion with 0.9% saline was performed to ensure blood removal from the brain tissue. Blood and brain samples were collected from a total of 85 mice at 0.25, 0.75, 1.5, 3, 6, 12, 24 h (3–4 mice for each sex and timepoint). Tissues were immediately homogenized with 0.2% formic acid at 1:2 (w/v), and frozen at −80 °C until analysis. Blood was centrifuged at 3000× g for 10 min at 4 °C to isolate serum. For efficacy studies, mice (n = 8/sex) were fasted at 5 h prior to Ethanol gavage 5 g/kg (37% Ethanol in water). DHM 50 mg/kg IP (dissolved in 0.9% saline with 10% DMSO) was administered at 0, 15, 45, 90 and 180 min prior to Ethanol oral gavage. Each mouse was tested at each time point 7 days apart over 6-week period. At the time of Ethanol gavage, mice were placed in oversized conical holders (L: 152 mm X W: 37 mm) and observed for ability to return upright upon being placed in a supine position. Duration of LORR was determined by ability to return upright 3 times within 30 s. To determine whether ethanol-induced tolerance developed, one week (Week 1; Baseline) prior to the 6-week repeated DHM dosing study all mice were oral dose with ethanol (5 g/kg) without any IP injection and LORR was measured. Mice were then re-tested in a similar fashion with oral ethanol 1 week after the DHM 6-week period (Week 8; Post). […] All animal studies were approved by the Institutional Animal Care and Use Committee of Rutgers University (Bello; PROTO999900014, OLAW #A3262-01, 15 March 2017) and complied with NIH Guide for the Care and Use of Laboratory Animals.
All serum samples were stored at −80 °C and conditioned to room temperature prior to analysis. An aliquot of 100 µL of serum, 20 µL 4M HCl, and 50 µL of internal standard (IS) solution (417 ng/mL isoquercetin in EtOAc) were combined in an Eppendorf tube. An aliquot of 500 µL of EtOAc was added and samples were vortexed for 30 s. Samples were then centrifuged at 3000× g for 2 min and the supernatant transferred to a glass vial. Samples were extracted 2 more times with EtOAc and the supernatant added to the corresponding vial containing 10 µL of 2% ascorbic acid in methanol (MeOH). Samples were then dried under vacuum, reconstituted with 100 µL of 45% MeOH in water with 0.1% formic acid (FA), centrifuged at 16,000× g for 10 min and transferred to an HPLC vial for analysis.
Whole brain samples were homogenized in FA. All brain homogenates were stored at −80 °C and conditioned to room temperature prior to analysis. An aliquot of 300 µL of brain homogenate was added to 50 µL IS solution (417 ng/mL in EtOAc) and 500 µL of EtOAc in an Eppendorf tube. Samples were then vortexed for 30 s and sonicated for 1 min. Samples were centrifuged for 2 min at 3000× g and the supernatant transferred to a glass vial with 10 µL of 2% ascorbic acid in methanol. Samples were extracted two more times with 500 µL EtOAc and the supernatant transferred to the corresponding vial and dried under vacuum. […]

α5β3γ2 GABAA receptors = biological target: T1, α5β3γ2 GABAA receptors (Homo sapiens, UniProt P18507+P28472+P31644); assay: Two-electrode voltage clamp electrophysiology in Xenopus oocytes in the presence of GABA; type: cell-based; conditions: compound 10 µM, GABA 10 µM
T1 construct: expressed in transfected cells; host or cells: Xenopus oocytes (injected with cDNA)
T1 sequence (P31644 32-462): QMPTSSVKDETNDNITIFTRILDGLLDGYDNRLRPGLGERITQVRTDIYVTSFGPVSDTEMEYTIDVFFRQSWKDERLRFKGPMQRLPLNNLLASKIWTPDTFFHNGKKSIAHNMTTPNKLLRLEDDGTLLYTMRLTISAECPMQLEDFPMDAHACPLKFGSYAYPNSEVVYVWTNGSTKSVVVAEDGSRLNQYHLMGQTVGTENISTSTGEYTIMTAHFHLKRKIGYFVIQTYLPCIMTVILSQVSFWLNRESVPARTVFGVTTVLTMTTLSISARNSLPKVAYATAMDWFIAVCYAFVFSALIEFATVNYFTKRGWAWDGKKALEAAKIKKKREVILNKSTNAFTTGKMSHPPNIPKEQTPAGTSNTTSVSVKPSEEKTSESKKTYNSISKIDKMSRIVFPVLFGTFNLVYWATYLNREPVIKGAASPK
T1 sequence (P28472 26-473): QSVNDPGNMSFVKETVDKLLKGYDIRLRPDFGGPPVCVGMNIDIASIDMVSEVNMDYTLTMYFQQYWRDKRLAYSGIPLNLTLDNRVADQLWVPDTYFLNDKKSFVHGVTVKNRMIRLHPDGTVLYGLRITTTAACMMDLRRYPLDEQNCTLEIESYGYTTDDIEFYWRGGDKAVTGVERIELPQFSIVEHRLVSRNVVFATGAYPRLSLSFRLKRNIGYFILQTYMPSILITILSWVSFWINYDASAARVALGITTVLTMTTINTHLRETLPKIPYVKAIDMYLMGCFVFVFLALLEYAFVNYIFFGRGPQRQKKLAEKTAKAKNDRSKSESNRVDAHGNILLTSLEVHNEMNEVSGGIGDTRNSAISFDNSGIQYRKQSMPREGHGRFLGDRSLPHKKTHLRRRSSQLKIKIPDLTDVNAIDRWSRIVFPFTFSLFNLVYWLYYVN
T1 sequence (P18507 40-475): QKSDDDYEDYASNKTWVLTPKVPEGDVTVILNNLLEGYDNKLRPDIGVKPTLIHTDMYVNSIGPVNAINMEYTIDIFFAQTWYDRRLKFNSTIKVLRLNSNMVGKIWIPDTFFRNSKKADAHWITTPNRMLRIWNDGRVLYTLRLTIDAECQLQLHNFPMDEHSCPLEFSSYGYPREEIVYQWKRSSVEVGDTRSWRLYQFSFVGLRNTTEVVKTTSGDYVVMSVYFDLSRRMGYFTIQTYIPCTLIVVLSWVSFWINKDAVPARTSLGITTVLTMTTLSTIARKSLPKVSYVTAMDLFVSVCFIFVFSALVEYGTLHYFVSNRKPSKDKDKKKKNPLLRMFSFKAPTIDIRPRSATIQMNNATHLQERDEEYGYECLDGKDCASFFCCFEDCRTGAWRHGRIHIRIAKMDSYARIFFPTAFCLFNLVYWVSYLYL
Description: Xenopus oocytes were stored in incubation media (pH 7.5), consisting of ND96 supplemented with 2 mM sodium pyruvate, […] gentamycin, and 10 mL heat inactivated HyClone horse serum. Stage 4 to 5 oocytes were injected with 40 nL of cDNA coding for α5, β3, and γ2 subunits in a ratio of 1:1:10, utilizing a Drummond Nanoject III. Injected oocytes were stored at 18 °C and used in electrophysiology studies within 2–7 days of injection.
Whole cell two-electrode voltage clamp (TEVC) recording were conducted on oocytes in the presence of GABA, according to previously reported methods. Oocytes were voltage clamped at a membrane potential of −70 mV. The oocyte recording chamber was continuously perfused with modified bath solution (MBS) with select compound (10 µM) and GABA (10 µM), with a final concentration of 1% DMSO [22, 44]. […] Oocytes were perfused at a rate of 3 mL/min. Electrophysiology recordings were conducted in triplicate compound for each compound. The change of GABAAR activity was determined by comparison of GABAAR potentiation to the EC20 with control saline in the presence of GABA.
Pharmacokinetic parameters were calculated using noncompartmental analysis. Elimination half-life (T1/2) was calculated with R software from the linear regression of the terminal phase of the log serum concentration-time curve. The AUC0→24 was calculated with OriginLab software by trapezoidal analysis of the serum concentration-time plot. Cmax and Tmax were determined directly from observed data. Data are expressed as mean ± SEM. Statistical significance between AUC0→24 among test groups was calculated with an independent t-test (GraphPad software, San Diego, CA, USA). Time to LORR was analyzed by repeated measured ANOVA. Tolerance was determined by mean split in LORR response and confirmed with paired t-test (Week 1 vs. Week 8). Statistical significance of serum concentrations for individual time points was calculated using a two-way analysis of variance (ANOVA) analysis. Post hoc Bonferroni tests were performed when justified. Statistical significance of electrophysiology results compound GABAergic modulation was determined using a paired t-test (Vehicle control vs. Compound, GraphPad software, San Diego CA, USA). p < 0.05 was considered significant.

Row | Molecule | Detection of metabolite in serum [1] | GABAAR potentiation (α5β3γ2 GABAA receptors) | Detection of metabolite in brain samples [1] | GABAAR potentiation (α5β3γ2 GABAA receptors; mean ± SEM)
1 | COc1c(O)cc([C@H]2Oc3cc(O)cc(O)c3C(=O)[C@@H]2O)cc1O (racemic) [4′-Me-DHM, 4′-O-methyl-dihydromyricetin] | detected | −12.6% | trace levels | –
2 | O=C1c2c(O)cc(O)cc2OC(c2cc(O)cc(O)c2)C1O (stereo not drawn) [4′-DeOH-DHM, 4′-dehydroxy-dihydromyricetin] | detected; also recorded: trace levels | +5.2% | – | +5.3 ± 2.0
3 | COc1cc(C2Oc3cc(O)cc(O)c3C(=O)C2O)cc(O)c1O (stereo not drawn) [3′-Me-DHM, 3′-O-methyl-dihydromyricetin] | detected | – | trace levels | –
4 | glucuronide-dehydroxy-dihydromyricetin [G-DeOH-DHM] | detected | – | – | –

The next lines start with the values.

Row | Detection of metabolite in serum [1] | GABAAR potentiation (α5β3γ2 GABAA receptors) | Detection of metabolite in brain samples [1] | GABAAR potentiation (α5β3γ2 GABAA receptors; mean ± SEM) | Molecule
5 | detected | – | – | – | COc1c(O)cc(C2Oc3cc(O)cc(OC4OC(C(=O)O)C(O)C(O)C4O)c3C(=O)C2O)cc1O (stereo not drawn) [G-4′-Me-DHM]
6 | detected | – | – | – | O=C1c2c(OC3OC(C(=O)O)C(O)C(O)C3O)cc(O)cc2OC(c2cc(O)c(O)c(O)c2)C1O (stereo not drawn) [G-DHM, glucuronide-dihydromyricetin]
7 | detected | – | – | – | COc1cc(C2Oc3cc(O)cc(OC4OC(C(=O)O)C(O)C(O)C4O)c3C(=O)C2O)cc(O)c1O (stereo not drawn) [G-3′-Me-DHM, glucuronide-3′-O-methoxy-dihydromyricetin]

Source: PMC8307506, “Identification of Dihydromyricetin and Metabolites in Serum and Brain Associated with Acute Anti-Ethanol Intoxicating Effects in Mice” (International Journal of Molecular Sciences, 2021)
